Values joined by “and” are separate entries in the source; they are usually repeats but may differ in a detail not shown here. Equal values may be shown once. Inconclusive results and toxic doses are left out.
Test system: L1210 leukemia ip in BDF1 mice, survival T/C
Experiment: NCI In Vivo Anticancer Drug Screen. Data for tumor model L1210 Leukemia (intraperitoneal) in B6D2F1 (BDF1) mice
Details: endpoint: mean survival time, higher = longer survival
Summary of the method: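 Transplanted-tumor mice were given test agent; controls received vehicle only. Survival readings from the two groups were divided (treated over control).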

[1] = dose: 100.0 mg/kg/injection, schedule: Q01DX001 (ip), vehicle: carboxymethylcellulose (CMC)
[2] = dose: 200.0 mg/kg/injection, schedule: Q01DX001 (ip), vehicle: carboxymethylcellulose (CMC)
[3] = dose: 100.0 mg/kg/injection, schedule: Q04DX003 (ip), vehicle: Klucel (hydroxypropylcellulose) (HPC)
[4] = dose: 200.0 mg/kg/injection, schedule: Q04DX003 (ip), vehicle: Klucel (hydroxypropylcellulose) (HPC)
[5] = dose: 25.0 mg/kg/injection, schedule: Q01DX009 (ip), vehicle: saline with Tween-80
[6] = dose: 50.0 mg/kg/injection, schedule: Q01DX009 (ip), vehicle: saline with Tween-80
[7] = dose: 100.0 mg/kg/injection, schedule: Q01DX009 (ip), vehicle: saline with Tween-80
[8] = dose: 200.0 mg/kg/injection, schedule: Q01DX009 (ip), vehicle: saline with Tween-80
[9] = dose: 400.0 mg/kg/injection, schedule: Q04DX003 (ip), vehicle: Klucel (hydroxypropylcellulose) (HPC)
[10] = dose: 400.0 mg/kg/injection, schedule: Q01DX001 (ip), vehicle: carboxymethylcellulose (CMC)
[11] = dose: 100.0 mg/kg/injection, schedule: Q01DX009 (ip), vehicle: Klucel (hydroxypropylcellulose) (HPC)
[12] = dose: 200.0 mg/kg/injection, schedule: Q01DX009 (ip), vehicle: Klucel (hydroxypropylcellulose) (HPC)
[13] = dose: 400.0 mg/kg/injection, schedule: Q01DX009 (ip), vehicle: Klucel (hydroxypropylcellulose) (HPC)
[14] = dose: 400.0 mg/kg/injection, schedule: Q01DX009 (ip), vehicle: saline with Tween-80
[15] = dose: 6.25 mg/kg/injection, schedule: Q01DX009 (ip), vehicle: saline with Tween-80
[16] = dose: 12.5 mg/kg/injection, schedule: Q01DX009 (ip), vehicle: saline with Tween-80
[17] = dose: 25.0 mg/kg/injection, schedule: Q04DX003 (ip), vehicle: saline with Tween-80
[18] = dose: 50.0 mg/kg/injection, schedule: Q04DX003 (ip), vehicle: saline with Tween-80
[19] = dose: 100.0 mg/kg/injection, schedule: Q04DX003 (ip), vehicle: saline with Tween-80

Q: With `CCS(=O)(=O)C(=CN(C)C)S(=O)(=O)CC` as the compound, how does the T/C (dose: 75.0 mg/kg/injection, schedule: Q04DX003 (ip), vehicle: saline) read?
A: 97 % of control

Q: And the T/C (dose: 150.0 mg/kg/injection, schedule: Q04DX003 (ip), vehicle: saline)?
A: 97 % of control

Q: What about the T/C (dose: 300.0 mg/kg/injection, schedule: Q04DX003 (ip), vehicle: saline) of the same compound?
A: 92 % of control

Q: `c1ccc2c(c1)CC([CH2][Hg][CH2]C1Cc3ccccc3O1)O2` (stereo not given) was tested. Which T/C [1] did it give?
A: 101 % of control

Q: What about the T/C [2] of the same compound?
A: 95 % of control

Q: What does the source list for `CSc1nc(Cl)c2ncn(C3C=CC(O)C(CO)O3)c2n1` (stereo not given)?
A: T/C (dose: 100.0 mg/kg/injection, schedule: Q01DX005 (ip), vehicle: saline): 95 % of control; T/C (dose: 200.0 mg/kg/injection, schedule: Q01DX005 (ip), vehicle: saline): 92 % of control

Q: With `Cc1ccc(Cl)cc1NC(=O)NCCCl` as the compound, how does the T/C [3] read?
A: 113 % of control

Q: And the T/C [4]?
A: 93 % of control

Q: With `CCOc1ccc(NC(=S)NC(=O)c2ccccc2F)cc1` as the compound, how does the T/C [5] read?
A: 92 % of control

Q: What about the T/C [6] of the same compound?
A: 104 % of control

Q: What about the T/C [7] of the same compound?
A: 87 % of control

Q: And the T/C [8]?
A: 87 % of control

Q: Which results are given for `O=C(Nc1cccc(Cl)c1)OCCOCCOC(=O)Nc1cccc(Cl)c1`?
A: T/C [3]: 93 % of control and 104 % of control; T/C [4]: 101 % of control and 106 % of control; T/C [9]: 97 % of control and 98 % of control

Q: `CCOc1ccc2c(c1)C(C)=CC(C)(C)N2` was tested. Which T/C [3] did it give?
A: 93 % of control

Q: What about the T/C [4] of the same compound?
A: 101 % of control

Q: And the T/C [9]?
A: 121 % of control

Q: With `C/C=C/c1ccc2ccccc2c1` as the compound, how does the T/C [1] read?
A: 104 % of control

Q: What about the T/C [2] of the same compound?
A: 96 % of control

Q: And the T/C [10]?
A: 104 % of control

Q: `CCN(C(=O)COc1ccc(Cl)cc1)c1ccccc1C` was tested. Which T/C [11] did it give?
A: 102 % of control

Q: What about the T/C [3] of the same compound?
A: 101 % of control

Q: What about the T/C [12] of the same compound?
A: 107 % of control

Q: What about the T/C [4] of the same compound?
A: 97 % of control

Q: And the T/C [13]?
A: 116 % of control

Q: What about the T/C [9] of the same compound?
A: 98 % of control

Q: Which T/C [6] does the source give for `CCCC1(CCC)OOC(CCC)(CCC)OO1` here?
A: 96 % of control

Q: What about the T/C [7] of the same compound?
A: 96 % of control

Q: And the T/C [8]?
A: 110 % of control

Q: `C/C(=C\C(=O)O)C(=O)O` (tested in a mixture with another compound) was tested. Which T/C (dose: 264.0 mg/kg/injection, schedule: Q01DX001 (ip), vehicle: carboxymethylcellulose (CMC)) did it give?
A: 113 % of control

Q: And the T/C [10]?
A: 112 % of control

Q: And the T/C (dose: 600.0 mg/kg/injection, schedule: Q01DX001 (ip), vehicle: carboxymethylcellulose (CMC))?
A: 112 % of control

Q: Which T/C [7] does the source give for `O=C1/C(=C2\CCCc3ccc(Cl)cc32)CCc2ccc(Cl)cc21` here?
A: 100 % of control

Q: And the T/C [8]?
A: 97 % of control

Q: And the T/C [14]?
A: 96 % of control

Q: How did the T/C (dose: 10.0 mg/kg/injection, schedule: Q04DX003 (ip), vehicle: other) turn out when `O=C(O)c1ccccc1-c1c2ccc(=O)c(O)c-2oc2c(O)c(O)ccc12` was run?
A: 99 % of control

Q: What about the T/C (dose: 20.0 mg/kg/injection, schedule: Q04DX003 (ip), vehicle: other) of the same compound?
A: 94 % of control

Q: What about the T/C (dose: 40.0 mg/kg/injection, schedule: Q04DX003 (ip), vehicle: other) of the same compound?
A: 98 % of control

Q: And the T/C (dose: 50.0 mg/kg/injection, schedule: Q04DX003 (ip), vehicle: other)?
A: 112 % of control

Q: What about the T/C (dose: 80.0 mg/kg/injection, schedule: Q04DX003 (ip), vehicle: other) of the same compound?
A: 89 % of control

Q: What about the T/C (dose: 100.0 mg/kg/injection, schedule: Q04DX003 (ip), vehicle: other) of the same compound?
A: 104 % of control

Q: What about the T/C (dose: 200.0 mg/kg/injection, schedule: Q04DX003 (ip), vehicle: other) of the same compound?
A: 124 % of control

Q: What does the source list for `CCCO[Si](C)(C)CCl`?
A: T/C (dose: 50.0 mg/kg/injection, schedule: Q01DX001 (ip), vehicle: carboxymethylcellulose (CMC)): 92 % of control; T/C [1]: 92 % of control; T/C [2]: 92 % of control; T/C [10]: 98 % of control

Q: What does the source list for `CN(C)CC/C=C1\c2ccccc2CN(C)c2ccccc21`?
A: T/C [15]: 94 % of control; T/C (dose: 6.25 mg/kg/injection, schedule: Q01DX009 (ip), vehicle: saline): 108 % of control; T/C [16]: 104 % of control; T/C (dose: 12.5 mg/kg/injection, schedule: Q01DX009 (ip), vehicle: saline): 107 % of control; T/C [5]: 88 % of control; T/C (dose: 25.0 mg/kg/injection, schedule: Q01DX009 (ip), vehicle: saline): 94 % of control; T/C [17]: 88 % of control; T/C (dose: 25.0 mg/kg/injection, schedule: Q04DX003 (ip), vehicle: saline): 97 % of control; T/C (dose: 50.0 mg/kg/injection, schedule: Q01DX009 (ip), vehicle: saline): 94 % of control; T/C [18]: 96 % of control; T/C (dose: 50.0 mg/kg/injection, schedule: Q04DX003 (ip), vehicle: saline): 97 % of control; T/C (dose: 100.0 mg/kg/injection, schedule: Q01DX009 (ip), vehicle: saline): 105 % of control; T/C [19]: 94 % of control; T/C (dose: 100.0 mg/kg/injection, schedule: Q04DX003 (ip), vehicle: saline): 101 % of control

Q: How did the T/C (dose: 75.0 mg/kg/injection, schedule: Q01DX001 (ip), vehicle: saline) turn out when `NC(=O)OCC(N)C(=O)O` (stereo not given) was run?
A: 96 % of control

Q: What about the T/C [7] of the same compound?
A: 89 % of control

Q: And the T/C (dose: 150.0 mg/kg/injection, schedule: Q01DX001 (ip), vehicle: saline)?
A: 94 % of control

Q: And the T/C [8]?
A: 87 % of control

Q: What about the T/C (dose: 300.0 mg/kg/injection, schedule: Q01DX001 (ip), vehicle: saline) of the same compound?
A: 100 % of control

Q: What about the T/C [14] of the same compound?
A: 90 % of control

Q: For `COc1ccc(C(=O)c2ccn[nH]2)cc1`, which T/C (dose: 75.0 mg/kg/injection, schedule: Q04DX003 (ip), vehicle: Klucel (hydroxypropylcellulose) (HPC)) is on record?
A: 97 % of control

Q: And the T/C (dose: 150.0 mg/kg/injection, schedule: Q04DX003 (ip), vehicle: Klucel (hydroxypropylcellulose) (HPC))?
A: 100 % of control

Q: What about the T/C (dose: 300.0 mg/kg/injection, schedule: Q04DX003 (ip), vehicle: Klucel (hydroxypropylcellulose) (HPC)) of the same compound?
A: 99 % of control

Q: What does the source list for `CN=C(N)c1ccc(NC(=O)/C=C\c2ccc(C(=O)Nc3ccc(C(N)=NC)cc3)cc2)cc1`?
A: T/C (dose: 1.88 mg/kg/injection, schedule: Q01DX Z (ip), vehicle: saline): 112 % of control; T/C (dose: 3.75 mg/kg/injection, schedule: Q01DX Z (ip), vehicle: saline): 119 % of control; T/C (dose: 7.5 mg/kg/injection, schedule: Q01DX Z (ip), vehicle: saline): 122 % of control; T/C (dose: 60.0 mg/kg/injection, schedule: Q01DX Z (ip), vehicle: saline): 233 % of control; T/C (dose: 120.0 mg/kg/injection, schedule: Q01DX Z (ip), vehicle: saline): 206 % of control; T/C (dose: 480.0 mg/kg/injection, schedule: Q01DX Z (ip), vehicle: saline): 96 % of control

Q: With `CCCCC(CC)C(O)C1CCCCC1O` (stereo not given) as the compound, how does the T/C [11] read?
A: 102 % of control

Q: What about the T/C [3] of the same compound?
A: 101 % of control

Q: What about the T/C [12] of the same compound?
A: 96 % of control

Q: What about the T/C [4] of the same compound?
A: 96 % of control

Q: What about the T/C [13] of the same compound?
A: 86 % of control

Q: What about the T/C [9] of the same compound?
A: 102 % of control

Q: `CCCCCCCCCCCCCCCCn1cnc2c(=S)nc[nH]c21` was tested. Which T/C (dose: 12.5 mg/kg/injection, schedule: Q01DX005 (ip), vehicle: other) did it give?
A: 102 % of control

Q: And the T/C (dose: 25.0 mg/kg/injection, schedule: Q01DX005 (ip), vehicle: other)?
A: 96 % of control

Q: And the T/C (dose: 50.0 mg/kg/injection, schedule: Q01DX005 (ip), vehicle: other)?
A: 104 % of control

Q: What about the T/C (dose: 100.0 mg/kg/injection, schedule: Q01DX005 (ip), vehicle: other) of the same compound?
A: 104 % of control

Q: What about the T/C (dose: 200.0 mg/kg/injection, schedule: Q01DX005 (ip), vehicle: other) of the same compound?
A: 96 % of control

Q: Which T/C (dose: 1.56 mg/kg/injection, schedule: Q01DX009 (ip), vehicle: saline with Tween-80) does the source give for `COc1cc(C(=O)N(CCCl)N=O)cc(OC)c1OC` here?
A: 100 % of control

Q: And the T/C (dose: 3.12 mg/kg/injection, schedule: Q01DX009 (ip), vehicle: saline with Tween-80)?
A: 100 % of control and 107 % of control

Q: What about the T/C [15] of the same compound?
A: 100 % of control and 104 % of control

Q: And the T/C [16]?
A: 104 % of control

Q: And the T/C [17]?
A: 102 % of control

Q: And the T/C [18]?
A: 89 % of control

Q: What about the T/C [19] of the same compound?
A: 102 % of control and 86 % of control

Reference: PubChem BioAssay AID248 (DTP/NCI, 2004)
